Laboratory results published in paper PMC8254048, “An interdomain hydrogen bond in the Rag GTPases maintains stable mTORC1 signaling in sensing amino acids” (The Journal of Biological Chemistry, 2021).

Columns and labels:
[1] = molecular target: T1, RagA–RagC GTPase heterodimer (Rag GTPases) (Homo sapiens, UniProt Q7L523+Q9HB90, Q9HB90:S266A); assay: half-site GTP hydrolysis after nucleotide preloading; type: biochemical; conditions: 1.2 molar equivalents prebound, labelled GTP added; pH 7.4, 2 mM MgCl2, 25 °C; stimulates hydrolysis on second subunit
T1 construct: gene RRAGA; RagA-RagC heterodimer coexpressed in E. coli BL21(DE3); nucleotide stripped with EDTA, gel filtration

[2] = molecular target: T2, RagA–RagC GTPase heterodimer (Rag GTPases) (Homo sapiens, UniProt Q7L523+Q9HB90, Q7L523:T210A); assay: as above; type: biochemical; conditions: 1.2 molar equivalents prebound, labelled GTP added; pH 7.4, 2 mM MgCl2, 25 °C; stimulates hydrolysis on second subunit
T2 construct: gene RRAGA; RagA-RagC heterodimer coexpressed in E. coli BL21(DE3); nucleotide stripped with EDTA, gel filtration
T2 sequence (Q7L523 whole entry T210A): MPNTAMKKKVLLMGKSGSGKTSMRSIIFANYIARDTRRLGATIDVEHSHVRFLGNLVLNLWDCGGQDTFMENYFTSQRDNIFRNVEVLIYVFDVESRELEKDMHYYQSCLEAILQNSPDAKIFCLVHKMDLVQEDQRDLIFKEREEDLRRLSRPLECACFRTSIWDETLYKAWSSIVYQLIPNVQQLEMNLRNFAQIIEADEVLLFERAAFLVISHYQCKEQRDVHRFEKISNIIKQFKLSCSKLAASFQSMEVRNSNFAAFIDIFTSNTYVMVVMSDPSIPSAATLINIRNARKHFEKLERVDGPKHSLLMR
T2 sequence (Q9HB90 whole entry): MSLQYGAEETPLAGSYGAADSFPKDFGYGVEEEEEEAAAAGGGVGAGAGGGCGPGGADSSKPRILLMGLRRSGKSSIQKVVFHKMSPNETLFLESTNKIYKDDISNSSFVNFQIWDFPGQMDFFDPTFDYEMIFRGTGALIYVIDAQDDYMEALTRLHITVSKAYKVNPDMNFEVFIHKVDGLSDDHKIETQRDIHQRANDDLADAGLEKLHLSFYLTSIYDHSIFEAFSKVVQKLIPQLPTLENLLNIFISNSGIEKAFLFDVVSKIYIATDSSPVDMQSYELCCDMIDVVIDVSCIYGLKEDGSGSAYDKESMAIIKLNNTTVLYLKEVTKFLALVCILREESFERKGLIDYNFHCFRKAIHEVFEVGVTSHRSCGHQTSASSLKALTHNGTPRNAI

T1 sequence (Q7L523 whole entry): as the sequence (Q7L523 whole entry T210A) above, with A210T counted along it
T1 sequence (Q9HB90 whole entry S266A): as the sequence (Q9HB90 whole entry) above, with S266A counted along it

Nc1nc2c(ncn2[C@@H]2O[C@H](COP(=O)(O)OP(=O)(O)NP(=O)(O)O)[C@@H](O)[C@H]2O)c(=O)[nH]1 [GppNHp]
half-site GTP hydrolysis after nucleotide preloading [1]: prebound GTP or GppNHp stimulated hydrolysis of the later-bound GTP to a much higher level | half-site GTP hydrolysis after nucleotide preloading [2]: prebound GTP or GppNHp stimulated hydrolysis of the later-bound GTP to a much higher level
